According to US9833497B2, “Human originated EGF domain proteins and use of the same” (CHENGDU SOURCEBIO LIMITED-LIABILITY COMPANY, priority 2013, dated 2017):

Key:
Type in all cases: cell-based
[1] = tested on: E. coli DH5α; assay: Antibacterial activity: MIC and growth curve against E. coli DH5α in 96-well plate; conditions: minimal inhibitory concentration against E. coli DH5α; 96-well plate, 5×10^5 CFU/mL, 37° C., judged after 8 h
Outline: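 Log-phase bacteria (OD600 ~0.5) resuspended in LB at 5×10^5 CFU/mL, exposed to recombinant protein at 50, 25, 12.5 μg/mL final in triplicate, 37 °C shaking at 175 rpm. OD600 read every 30 min; MIC is lowest concentration showing no growth.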

[2] = tested on: E. coli BL21; assay: MIC against Gram-negative bacteria: E. coli BL21
Outline: (§1)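 Antibacterial activity of purified human EGF domain proteins: two-fold concentration series, triplicate wells, LB broth, 5×10^5 CFU/mL bacteria, 37° C shaking incubation. The lowest concentration without growth defines the MIC.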

[3] = tested on: Pseudomonas aeruginosa; assay: MIC against Gram-negative bacteria: Pseudomonas aeruginosa
Outline: as §1

[4] = tested on: Klebsiella pneumonia; assay: MIC against Gram-negative bacteria: Klebsiella pneumonia
Outline: as §1

[5] = tested on: Enterobacter cloacae; assay: MIC against Gram-negative bacteria: Enterobacter cloacae
Outline: as §1

[6] = tested on: Aeromonas hydrophila; assay: MIC against Gram-negative bacteria: Aeromonas hydrophila
Outline: as §1

[7] = tested on: Citrobacter diversus; assay: MIC against Gram-negative bacteria: Citrobacter diversus
Outline: as §1

[8] = tested on: Moraxella catarrhalis; assay: MIC against Gram-negative bacteria: Moraxella catarrhalis
Outline: as §1

[9] = tested on: Proteus mirabilis; assay: MIC against Gram-negative bacteria: Proteus mirabilis
Outline: as §1

[10] = tested on: Proteus vulgaris; assay: MIC against Gram-negative bacteria: Proteus vulgaris
Outline: as §1

[11] = tested on: Serratia marcescens; assay: MIC against Gram-negative bacteria: Serratia marcescens
Outline: as §1

[12] = E. coli BL21, 5×10^5 CFU/mL, 10 h cultivation at 37° C.
[13] = Pseudomonas aeruginosa, 5×10^5 CFU/mL, 10 h cultivation at 37° C.
[14] = Klebsiella pneumonia, 5×10^5 CFU/mL, 10 h cultivation at 37° C.
[15] = Enterobacter cloacae, 5×10^5 CFU/mL, 10 h cultivation at 37° C.
[16] = Aeromonas hydrophila, 5×10^5 CFU/mL, 10 h cultivation at 37° C.
[17] = Citrobacter diversus, 5×10^5 CFU/mL, 10 h cultivation at 37° C.
[18] = Moraxella catarrhalis, 5×10^5 CFU/mL, 10 h cultivation at 37° C.
[19] = Proteus mirabilis, 5×10^5 CFU/mL, 10 h cultivation at 37° C.
[20] = Proteus vulgaris, 5×10^5 CFU/mL, 10 h cultivation at 37° C.
[21] = Serratia marcescens, 5×10^5 CFU/mL, 10 h cultivation at 37° C.
[22] = E. coli BL21, 10 h cultivation at 37° C., 5×10^5 CFU/mL
[23] = P. aeruginosa, 10 h cultivation at 37° C., 5×10^5 CFU/mL
[24] = K. pneumonia, 10 h cultivation at 37° C., 5×10^5 CFU/mL
[25] = E. cloacae, 10 h cultivation at 37° C., 5×10^5 CFU/mL
[26] = A. hydrophila, 10 h cultivation at 37° C., 5×10^5 CFU/mL
[27] = C. diversus, 10 h cultivation at 37° C., 5×10^5 CFU/mL
[28] = M. catarrhalis, 10 h cultivation at 37° C., 5×10^5 CFU/mL
[29] = P. mirabilis, 10 h cultivation at 37° C., 5×10^5 CFU/mL
[30] = P. vulgaris, 10 h cultivation at 37° C., 5×10^5 CFU/mL
[31] = S. marcescens, 10 h cultivation at 37° C., 5×10^5 CFU/mL
[32] = 10 h cultivation at 37° C., 5×10^5 CFU/mL, two-fold serial dilution
[33] = 96-well plate, 5×10^5 CFU/mL, 37° C., 10 h

PRT1441 (EVDECSWPDHGGCEHRCVNTLGSYKCACDPGYELAADKKMCE; listed as Homo sapiens)
100 µg/mL: MIC against C. diversus [7, 17]
25 µg/mL: MIC [1] | MIC against E. coli BL21 [2, 12] | MIC against K. pneumonia [4, 14] | MIC against A. hydrophila [6, 16] | MIC against P. vulgaris [10, 20]
12.5 µg/mL: MIC against P. aeruginosa [3, 13] | MIC against E. cloacae [5, 15] | MIC against M. catarrhalis [8, 18] | MIC against P. mirabilis [9, 19] | MIC against S. marcescens [11, 21]

PRT412 (LNDRCRGGGPCKQQCRDTGDEVVCSCFVGYQLLSDGVSCE; listed as Homo sapiens)
50 µg/mL: MIC [2, 22] | MIC [5, 25]
12.5 µg/mL: MIC [1] | MIC [3, 23] | MIC [7, 27] | MIC [9, 29] | MIC [11, 31]
25 µg/mL: MIC [4, 24] | MIC [6, 26] | MIC [8, 28] | MIC [10, 30]

PRT1432 (PARTCHSPAHSPCHIHAHCLFERNGAVSCQCNVGWAGNGNVCG; listed as Homo sapiens)
12.5 µg/mL: MIC against E. coli BL21 [2, 12] | MIC against K. pneumonia [4, 14] | MIC against C. diversus [7, 17] | MIC against S. marcescens [11, 21]
50 µg/mL: MIC against P. aeruginosa [3, 13] | MIC against E. cloacae [5, 15] | MIC against P. mirabilis [9, 19]
25 µg/mL: MIC [1] | MIC against A. hydrophila [6, 16] | MIC against M. catarrhalis [8, 18] | MIC against P. vulgaris [10, 20]

PRT1086 (HFKPCRDKDLAYCLNDGECFVIETLTGSHKHCRCKEGYQGVRCD; listed as Homo sapiens)
25 µg/mL: MIC E. coli BL21 [2, 32] | MIC K. pneumonia [4, 32] | MIC A. hydrophila [6, 32] | MIC M. catarrhalis [8, 32]
12.5 µg/mL: MIC [1] | MIC E. cloacae [5, 32] | MIC P. mirabilis [9, 32] | MIC S. marcescens [11, 32]
50 µg/mL: MIC P. aeruginosa [3, 32] | MIC C. diversus [7, 32] | MIC P. vulgaris [10, 32]

PRT1375 (SIRTCPSNCHGRGRCEEGRCLCDPGYTGPTC; listed as Homo sapiens)
12.5 µg/mL: MIC [1] | MIC against E. coli BL21 [2, 12] | MIC against P. aeruginosa [3, 13] | MIC against K. pneumonia [4, 14] | MIC against E. cloacae [5, 15] | MIC against C. diversus [7, 17] | MIC against S. marcescens [11, 21]
25 µg/mL: MIC against A. hydrophila [6, 16] | MIC against M. catarrhalis [8, 18] | MIC against P. vulgaris [10, 20]
50 µg/mL: MIC against P. mirabilis [9, 19]

PRT449 (FLCRCHQGYELHRDGFSCSDIDE; listed as Homo sapiens)
50 µg/mL: MIC [1] | MIC against P. aeruginosa [3, 33] | MIC against E. cloacae [5, 33] | MIC against P. mirabilis [9, 33] | MIC against S. marcescens [11, 33]
12.5 µg/mL: MIC against E. coli BL21 [2, 33] | MIC against K. pneumonia [4, 33] | MIC against C. diversus [7, 33] | MIC against P. vulgaris [10, 33]
25 µg/mL: MIC against A. hydrophila [6, 33] | MIC against M. catarrhalis [8, 33]

PRT995 (ETNECASAPCLNHADCHDLLNGFQCICLPGFSGTRCE; listed as Homo sapiens)
12.5 µg/mL: MIC [1] | MIC ([3]; P. aeruginosa, 10 h cultivation at 37° C.) | MIC ([5]; E. cloacae, 10 h cultivation at 37° C.) | MIC ([8]; M. catarrhalis, 10 h cultivation at 37° C.) | MIC ([11]; S. marcescens, 10 h cultivation at 37° C.)
25 µg/mL: MIC ([7]; C. diversus, 10 h cultivation at 37° C.) | MIC ([9]; P. mirabilis, 10 h cultivation at 37° C.)
50 µg/mL: MIC ([2]; E. coli BL21, 10 h cultivation at 37° C.) | MIC ([4]; K. pneumonia, 10 h cultivation at 37° C.) | MIC ([6]; A. hydrophila, 10 h cultivation at 37° C.) | MIC ([10]; P. vulgaris, 10 h cultivation at 37° C.)

PRT250 (DVDECRTSITLCSHHCFNTAGSFTCGCPHDLVLGVDGRTCM; listed as Homo sapiens)
25 µg/mL: MIC (μg/mL) A. hydrophila [6, 26] | MIC (μg/mL) M. catarrhalis [8, 28] | MIC (μg/mL) P. vulgaris [10, 30]
12.5 µg/mL: MIC [1] | MIC (μg/mL) E. coli BL21 [2, 22] | MIC (μg/mL) P. aeruginosa [3, 23] | MIC (μg/mL) K. pneumonia [4, 24] | MIC (μg/mL) E. cloacae [5, 25] | MIC (μg/mL) C. diversus [7, 27] | MIC (μg/mL) P. mirabilis [9, 29] | MIC (μg/mL) S. marcescens [11, 31]

PRT1476 (DVDECSLKPSICGTAVCKNIPGDFECECPEGYRYNLKSKSCE; listed as Homo sapiens)
25 µg/mL: MIC against E. coli BL21 [2, 12] | MIC against M. catarrhalis [8, 18] | MIC against S. marcescens [11, 21]
12.5 µg/mL: MIC [1] | MIC against P. aeruginosa [3, 13] | MIC against E. cloacae [5, 15] | MIC against C. diversus [7, 17] | MIC against P. vulgaris [10, 20]
50 µg/mL: MIC against K. pneumonia [4, 14] | MIC against A. hydrophila [6, 16] | MIC against P. mirabilis [9, 19]

PRT92 (VSDLCATGDHDCEQVCISSPGSYTCACHEGFTLNSDGKTCN; listed as Homo sapiens)
50 µg/mL: MIC [1] | MIC (μg/mL) P. aeruginosa ([3]; Pseudomonas aeruginosa, 96-well plate, 5×10^5 CFU/mL, 37° C., 10 h) | MIC (μg/mL) E. cloacae ([5]; Enterobacter cloacae, 96-well plate, 5×10^5 CFU/mL, 37° C., 10 h) | MIC (μg/mL) P. mirabilis ([9]; Proteus mirabilis, 96-well plate, 5×10^5 CFU/mL, 37° C., 10 h)
12.5 µg/mL: MIC (μg/mL) E. coli BL21 ([2]; E. coli BL21, 96-well plate, 5×10^5 CFU/mL, 37° C., 10 h) | MIC (μg/mL) K. pneumonia ([4]; Klebsiella pneumonia, 96-well plate, 5×10^5 CFU/mL, 37° C., 10 h) | MIC (μg/mL) C. diversus ([7]; Citrobacter diversus, 96-well plate, 5×10^5 CFU/mL, 37° C., 10 h) | MIC (μg/mL) S. marcescens ([11]; Serratia marcescens, 96-well plate, 5×10^5 CFU/mL, 37° C., 10 h)
25 µg/mL: MIC (μg/mL) A. hydrophila ([6]; Aeromonas hydrophila, 96-well plate, 5×10^5 CFU/mL, 37° C., 10 h) | MIC (μg/mL) M. catarrhalis ([8]; Moraxella catarrhalis, 96-well plate, 5×10^5 CFU/mL, 37° C., 10 h) | MIC (μg/mL) P. vulgaris ([10]; Proteus vulgaris, 96-well plate, 5×10^5 CFU/mL, 37° C., 10 h)
